This note sets out measurements from the METLIN SMRT retention time set (Domingo-Almenara et al. 2019).

The nature of this data set: gradient 5% acetonitrile 3 min, to 50% in 2 min, to 85% in 15 min, held 3 min, 100 µL/min. The following applies: column: Zorbax Extend-C18 2.1 x 50 mm; eluents: water / acetonitrile, 0.1% formic acid. The method in brief: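 Retention times come from adduct peaks that were picked computationally and then checked by hand. The standards, pure and pooled in mixtures of ~100 molecules, were run on a Zorbax Extend-C18 column (2.1 × 50 mm, 1.8 μm) at 100 μL/min with water and acetonitrile, each with 0.1% formic acid. Detection was by quadrupole time-of-flight mass spectrometry in positive and negative ionization mode, with a dead volume of 40 μL and a dwell volume of 900 μL.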
`O=C(Nc1cc(-c2ccccn2)no1)c1ccc(F)cc1`: the RP-LC retention time stood at 795 s.
With `Cc1cc(OCC(=O)NCc2ccc3c(c2)OCO3)nc(N2CCCC(C)C2)n1` (stereo not drawn) the figure was 671 s; with `COc1ccc(OC)c(CNC(=O)c2cn3ccc(C)cc3n2)c1`, 541 s; with `Cn1cc(-c2cc3n(n2)CCC(=O)N3CC(=O)NCCC2=CCCCC2)c2ccccc21`, 891 s.
With `COc1ccc(NC(=O)Cn2ccc3c(=O)n(C)c(=O)n(C)c32)c(OC)c1` the figure was 665 s; with `CCCN(C)S(=O)(=O)c1c(C)nn(-c2ccc(-c3ccccc3)nn2)c1C`, 1080 s; with `CCN1CCN(c2ccc(N3CCCC(C(=O)N4CCN(c5ccccn5)CC4)C3)nn2)CC1` (stereo not drawn), 574 s.
In the case of `COc1ccc(-c2c(C(=O)Nc3ccccc3OC)nc3ccccn23)cc1`, the RP-LC retention time came to 991 s.
The same measure for `COCc1nncn1C1CCN(S(=O)(=O)c2ccc(Cl)c(C)c2)CC1`: 765 s.
The same measure for `COC(=O)c1cc(C)nc2c1c(=O)n(Cc1cccc(F)c1)c(=O)n2C`: 973 s; for `CN1CCN(C(=O)c2cc(-c3cccs3)n(CC(=O)NCc3ccco3)n2)CC1`: 572 s; for `Cc1ccc(NS(=O)(=O)c2cc(-c3[nH]ncc3C(=O)N3CCOCC3)oc2C)c(F)c1`: 701 s.
The same measure for `CCNc1cc(N2CCCC(CCC(=O)NC(CC)CC)C2)ncn1` (stereo not drawn): 658 s.
With `O=C(CC1c2ncccc2C(=O)N1Cc1ccc(F)cc1)NCc1cc(F)ccc1F` (stereo not drawn), the RP-LC retention time stood at 735 s.
The same measure for `O=C(Cc1c(Sc2ccc(F)cc2)[nH]c2ccccc12)N1CCN(c2ncccn2)CC1`: 966 s.
The same measure for `COc1ccccc1CC(=O)N1CCN(c2ncnc3c2CCC3)CC1`: 621 s; for `c1nc2ccc(-c3nc(-c4ccc5c(c4)nnn5CCN4CCCCC4)no3)cc2[nH]1`: 570 s; for `O=C(NCC(c1cccnc1)c1c[nH]c2ccccc12)Nc1cccc(F)c1` (stereo not drawn): 671 s.
The same measure for `COc1ccc(-c2nsc(SCC(=O)Nc3cc(C)on3)n2)cc1`: 860 s; for `COc1ccc(-c2cn3c(CC(=O)N4CCN(Cc5ccccc5)CC4)csc3n2)cc1OC`: 596 s; for `CN1CC(=O)N(CC(=O)NC2CCCCCCC2)c2ccccc2C1=O`: 717 s.
Take `CN1C(=O)C2CCCCN2c2ccc(C(=O)N3CCc4ccccc4C3)cc21` (stereo not drawn): the RP-LC retention time was determined as 946 s.
Compound `CCCn1c(=O)c(N2CCC(NC(=O)Nc3ccc4c(c3)OCCO4)CC2)nc2ccccc21` had an RP-LC retention time of 933 s.
The same measure for `COc1ncccc1CNC(=O)NC1CCCCC1`: 713 s; for `COc1ccc(NC(=O)Cn2c(=O)n(-c3ccc(F)cc3)c3ncccc32)cc1OC`: 753 s.
For `COc1cc(NC(=O)N2CCC(CC(=O)N3CCN(c4ccccn4)CC3)CC2)cc(OC)c1OC`, the RP-LC retention time was found to be 576 s.
In turn, `CCC1CCCCN1Cc1ccc(CNC(=O)c2c(C)oc3c2C2=NCCN2C=N3)o1` (stereo not drawn) displayed an RP-LC retention time of 710 s.
Turning to `CCC(C(=O)Nc1ccc(Cl)cc1)n1cnc2nc3c(cc2c1=O)CCCC3` (stereo not drawn), the RP-LC retention time amounted to 878 s.
The same measure for `Cc1nn(C2CCS(=O)(=O)C2)c(C)c1S(=O)(=O)NCc1ccco1` (stereo not drawn): 638 s.
With `COC(=O)c1ncn2c1C(=O)N(Cc1cccc(C)c1)C(C)(C(=O)NCc1ccc(C)cc1)C2` (stereo not drawn) the figure was 801 s; with `Cc1ccc(-c2[nH]c3[nH]c(=O)[nH]c(=O)c3c2C2C(=O)N(C)c3ccccc32)cc1` (stereo not drawn), 696 s; with `CCn1c(=O)c(C(=O)NCc2cccnc2)nc2cccnc21`, 555 s.
Regarding `CC1CCN(CCNC(=O)c2cccc3c2SCCC3=O)CC1`, the RP-LC retention time was found to be 588 s.
`Cc1c(Cl)ccc2c(=O)c3c([nH]c12)CCN(CC(=O)Nc1cccc(Cl)c1)C3` yielded an RP-LC retention time of 704 s.
`CN(C)CC1(O)CCC2(CCN(C(=O)c3cccn3C)CC2)CC1` had an RP-LC retention time of 577 s.
With `COc1cc(CNC(=O)C2CCN(c3nc(C4CCC4)nc4csc(C)c34)CC2)cc(OC)c1` the figure was 748 s; with `CCCN(CC1CCOC1)C(=O)Nc1cc(C)ccc1OC` (stereo not drawn), 874 s; with `COc1ccc(C2(C(=O)Nc3cc(-c4ccsc4)no3)CC2)cc1`, 1030 s.
Regarding `O=C(CCC[C@@H]1[C@H]2CCCN3CCC[C@@H](CN1C(=O)c1ccccc1)[C@@H]23)Nc1ccc2c(c1)OCCO2`, the RP-LC retention time amounted to 647 s.
The same measure for `Cc1ccc(CNC(=O)CN2C(=O)C3CCCCN3c3ccc(S(=O)(=O)N4CCCC4)cc32)cc1` (stereo not drawn): 966 s; for `CCNC(=O)c1cn(-c2ccc(SCC(=O)Nc3ccc4c(c3)OCCO4)nn2)cn1`: 637 s.
The same measure for `COc1cc(C(=O)Nc2nc(-c3ccc(F)cc3)cs2)cc(OC)c1OC`: 1040 s; for `CCc1nn2c(N3CCN(c4cccc(C)n4)CC3)cc(C)nc2c1-c1ccccc1`: 1100 s.
The same measure for `COc1ccc(NC(=O)CN2C(=O)CC(C)Sc3ccccc32)c(OC)c1` (stereo not drawn): 853 s; for `Cn1c(C2CCN(C(=O)Nc3cccc(Cl)c3F)CC2)cc(=O)n2nccc12`: 685 s; for `CC(C)(C)c1csc(-c2csc(S(=O)(=O)N3CCN(c4ccccn4)CC3)c2)n1`: 974 s.
As for `CCCNC(=O)C(=O)NCc1n[nH]c(=O)c2ccccc12`, the RP-LC retention time was found to be 627 s.
With `COC(=O)c1ccc(NC(=O)c2cnc(-c3ccc(C)cc3)nc2-c2ccncc2)cc1` the figure was 961 s; with `COc1ccc(-c2nc(C3CC(=O)N(c4ccc(Cl)cc4)C3)no2)c(OC)c1` (stereo not drawn), 996 s; with `Cc1ccc(S(=O)(=O)Cc2cccc(-c3nc(-c4cccc(-c5ccnn5C)c4)no3)c2)cc1`, 1140 s.
The same measure for `CCc1nnc(-c2ccc3ccn(CC(=O)Nc4ccc(Cl)cn4)c3c2)o1`: 843 s; for `COC(=O)c1ccc2c(=O)n(-c3cccc(Cl)c3)c(N3CCSCC3)nc2c1`: 1090 s.
Take `CC(C)Cn1c(=O)c(C(=O)NC2CCCC2)nc2cccnc21`: the RP-LC retention time turned out to be 936 s.
With `CCCN1C(=O)COc2cc(-c3noc(C(=O)NCC4CCCO4)n3)ccc21` (stereo not drawn) the figure was 841 s; with `Cc1ccccc1Cn1c(C)c(CNCCc2ccco2)c(C(=O)O)c1C`, 738 s; with `O=C(C1CC1)N1CCc2sc(S(=O)(=O)NCc3ccccc3F)cc2C1`, 815 s.
Turning to `CNC(=O)c1c(NC(=O)c2ccc(C)cc2)sc2c1CCC2`, the RP-LC retention time came out at 1070 s.
Compound `CCc1ccc(NC(=O)N2CCN(Cc3nc4ccccc4o3)CC2)cc1` came in with an RP-LC retention time of 738 s.
